# Experimental data as given in patent publication US5874472A, “Aminoacid derivatives as no synthase inhibitors” (Glaxo Wellcome Inc., priority 1993, dated 1999).
# pKi: −log10 of the molar value.
# Columns and labels:
# Type in all cases: biochemical
# inducible human NOS = target: T1, inducible human NOS (Homo sapiens, UniProt P35228); experiment: Inhibition of inducible human NOS (citrulline formation), enzyme from cytokine-induced DLD-1 cells; conditions: NOS from cytokine-induced DLD-1 cells; 1 μM L-[14C] arginine; pH 7.4; 10 μM FAD, no calmodulin/CaCl2
# T1 construct: Purification of NOS cytokine-induced human colorectal adenocarcinoma DLD-1 cells; host or cells: DLD-1 cells induced with interferon-gamma, interleukin-6, tumor necrosis factor and interleukin-1beta; 2',5' ADP Sepharose purified
# Method: (§1) NOS was assayed for the formation of citrulline following the procedure of Schmidt et al (PNAS 88 365-369, 1991) with these modifications: 20 mM Hepes, pH 7.4, 10 μg/ml calmodulin, 2.5 mM CaCl2 2.5 mM DTT, 125 μM NADPH 10 μM H4 Biopterin, 0.5 mg/ml BSA, and 1 μM L-[^14 C] arginine (New England Nuclear). Linearity of NOS-catalyzed rate was confirmed prior to kinetic studies that used single time point determination of rate.
# Purification of NOS cytokine-induced human colorectal adenocarcinoma DLD-1 cells.
# DLD-1 (ATCC No. CCL 221) were grown at 37° C., 5% CO2 in RPMI 1640 medium supplemented with L- glutamin, penicillin, streptomycin, and 10% heat-inactivated fetal bovine serum. Cells were grown to confluency and then the following cocktail of cytokines were added: 100 units/ml interferon-gamma, 200 units/ml interleukin-6, 10 ng/ml tumor necrosis factor, and 0.5 ng/ml interieukin-1β. At 10-24 hr post-induction, cells were harvested by scraping and washed with phosphate-buffered saline. Pelleted cells were stored at -70° C. Purification of the induced NOS was performed at 4° C. Crude extract was prepared by three cycles of freeze/thawing cells in TDGB (20 mM tris pH 7.5, 10% glycerol, 1 mM DTT, 2 μM tetrahydrobiopterin). Extract was applied directly onto a column of 2',5' ADP sepharse (Pharmacia). Resin was sequentially washed with TDGB, 0.5 M NaCl in TDGB, TDGB. NOS was eluted with 2 mM NADPH in TDGB. BSA was immediately added to give a final concentration of 1 mg/ml. NOS could be quick frozen and stored at -70° C. without loss in activity for at least 2 months.
# Assay for inducible human NOs.
# The formation of citrulline was assayed as described above except that 10 μM FAD was included and calmodulin and CaCl2 were excluded from the assay mix.
# human placental NOS = target: T2, human placental NOS (Homo sapiens, UniProt P29474); experiment: Inhibition of human placental NOS (citrulline formation); conditions: 1 μM L-[14C] arginine; pH 7.4; calmodulin, CaCl2
# T2 construct: Purification of NOS from human placenta; from tissue; host or cells: fresh human placenta, amnion and chorion removed; ammonium sulfate and 2',5' ADP agarose purified
# Method: It is noted that the NO synthase isolated from human placenta most probably represents the endothelial constitutive isoenzyme.
# Purification of NOS from human placenta.
# Amion and chorion were removed from fresh placenta, which was then rinsed with 0.9% NaCl. The tissue was homogenized in a Waring blender in 3 volumes of HEDS buffer (20 mM Hepes pH 7.8, 0.1 mM EDTA, 5 mM DTT, 0.2M sucrose) plus 0.1 mM PMSF.
# The homogenate was filtered through cheesecloth and then centrifuged at 1000 g for 20 min. The supernatant was recentrifuged at 27500 g for 30 min. Solid ammonium sulfate was added to the supernatant to give 32% saturation. Precipitated protein was pelleted at 25,000 g and then redissolved in a minimal volume of HEDS buffer plus 0.1 mM PMSF, 10 μg/ml leupeptin and soybean trypsin inhibitor, and 1 μg/ml pepstatin. The redissolved pellet was centrigued at 15000 g for 10 min. To the supernatant was added 1/20 volume of 2',5' ADP agarose resin (Sigma), and the slurry was mixed slowly overnight. In morning, slurry was packed into a column. The resin was sequentially washed with HEDS, 0.5M NaCl in HEDS, HEDS, and then NOS was eluted with 10 mM NADPH in HEDS. The enzyme could be concentrated by ultrafiltration and quick frozen and stored at -70° C. without loss in activity for at least 6 months.
# Assay for human placental NOS
# as §1
# human brain NOS = target: T3, human brain NOS (Homo sapiens, UniProt P29475); experiment: Inhibition of human brain NOS (citrulline formation); conditions: Schmidt et al. 1991 procedure, 10 μM tetrahydrobiopterin included
# T3 construct: Purification of NOS from human brain; from tissue; host or cells: frozen human brain; ammonium sulfate, 2',5' ADP-agarose, calmodulin-agarose
# Method: Purification of NOS from human brain
# Human brain NOS was prepared using variations of the procedures of Schmidt et al. (PNAS 88 365-369, 1991), Mayer et al. (Fed. Eur. Biochem. Soc. 288 187-191, 1991), and Bredt and Snyder, (PNAS 87 682-685, 1990). Briefly, frozen human brain (1050 gm) was homogenized in cold buffer A (50 mM HEPES, pH 7.5 (pH at RT) and 0.5 mM EDTA, 10 mM DTT, 3.6 L total volume) with a polytron. The mixture was centrifuged at 13,000 g for 1 hour and the supernatant was removed (about 2050 ml). To the supernatant, solid aimmonium sulfate (365 gm, about 30% of saturation) was added and stirred slowly for a total of 30 minutes. The precipitate was pelleted at 13,000 g for 30 minutes and the pellet was resuspended in ~400 mls of buffer A with 4 μM tetrahydrobiopterin, 1 μM FAD (Sigma), 1 μM FMN (Sigma). The solution was centrifuged at 41,000 g for 60 minutes. The supernatant was removed, frozen by pouring into liquid nitrogen, and stored overnight at -70° C. The mixture was thawed and passed through a 2',5' ADP-agarose column (0.4 g swelled in buffer A) at 4 ml/min. The column was washed with 100 ml buffer A, 200 ml buffer A with 500 mM NaCl, 100 ml Buffer A, then 30 ml buffer A with 5 mM NADPH. To the enzyme eluted from the column was added glycerol to 15%, CaCl2 to 1 mM, tetrahydrobiopterin to 10 μM, tween to 0.1% and FAD, FMN to 1 μM each. The enzyme was then passed through a 1 ml calmodulin-agarose column which had been equilibrated in Buffer A, 15% glycerol and 1 mM CaCl2. The column was washed with 15 ml Buffer A, 15% glycerol and 1 mM CaCl2, 15 ml of Buffer A, 15% glycerol and 5 mM EDTA, and then enzyme activity was eluted with 3 ml of Buffer A, 15% glycerol and 5 mM EDTA, 1 M NaCl. To the enzyme was added tetrahydrobiopterin to 10 μM, FAD and FMN to 1 μM, and tween to 0.1%. This solution was concentrated by centriprep-30 to a volume of approximately 500 μl. Human NOS was prepared completely analogously except the calmodulin-agarose column was not used. Enzyme activity was determined as described by Schmidt et al. 1991, except that 10 μM tetrahydrobiopterin was included in the assay.
Compound,pKi (inducible human NOS),pKi (human placental NOS),pKi (human brain NOS)
4-Acetamido-DL-phenylalanine [Compound 15],< 4.30,< 4.30,< 4.30
"CNC(=N)Nc1ccc(CC(N)C(=O)O)s1 (racemic) [Compound 1, 3-(5-N'-methylguanidino-2-thienyl)-DL-alanine]",< 4.30,≥ 5.00,≥ 4.30
"N=C(N)Nc1ccc(CC(N)C(=O)O)s1 (racemic) [Compound 2, 3-(5-Guanidino-2-thienyl)-DL-alanine]",≥ 4.30,≥ 4.30,≥ 5.00
"NC(N)=Nc1ccccc1CC(N)C(=O)O (racemic) [Compound 3, 2-Guanidino-DL-phenylalanine]",≥ 5.00,≥ 6.30,≥ 6.30
"CCSC(=N)Nc1ccc(CC(N)C(=O)O)s1 (racemic) [Compound 4, 3-(5-S-ethylisothioureido-2-thienyl)-DL-alanine]",< 4.30,≥ 5.00,≥ 4.30
"N=C(Nc1ccc(CC(N)C(=O)O)s1)NC1CC1 (racemic) [Compound 5, 3-(5-N'-cyclopropylguanidino-2-thienyl)-DL-alanine]",< 4.30,≥ 5.00,≥ 5.00
"C=CCNC(=N)Nc1ccc(CC(N)C(=O)O)s1 (racemic) [Compound 6, 3-(5-N'-allylguanidino-2-thienyl)-DL-alanine]",≥ 5.00,≥ 5.00,≥ 5.00
"NC(=S)Nc1ccccc1CC(N)C(=O)O (racemic) [Compound 7, 2-thioureido-DL-phenylalanine]",≥ 5.00,≥ 5.00,≥ 5.00
"CSC(=N)Nc1ccccc1CC(N)C(=O)O (racemic) [Compound 8, 2-(S-methylisothioureido)-DL-phenylalanine]",≥ 5.00,≥ 6.00,≥ 6.00
"CCSC(=N)Nc1ccccc1CC(N)C(=O)O (racemic) [Compound 9, 2-(S-ethylisothioureido)-DL-phenylalanine]",≥ 6.00,≥ 6.30,≥ 6.30
"C/N=C(/N)Nc1ccccc1CC(N)C(=O)O (racemic) [Compound 10, 2-(N'-methylguanidino)-DL-phenylalanine]",≥ 6.00,≥ 6.30,≥ 6.30
"NC(=NC1CC1)Nc1ccccc1CC(N)C(=O)O (racemic) [Compound 11, 2-(N'-cyclopropylguanidino)-DL-phenylalanine]",≥ 6.00,≥ 6.30,≥ 6.00
"N=C(N)Nc1cccc(CC(N)C(=O)O)c1 (racemic) [Compound 12, 3-guanidino-DL-phenylalanine]",< 4.30,≥ 4.30,≥ 4.30
"N=C(N)Nc1ccc(CC(N)C(=O)O)cc1 (racemic) [Compound 13, 4-Guanidino-DL-phenylalanine]",< 4.30,< 4.30,< 4.30
"CC(=N)Nc1cccc(CC(N)C(=O)O)c1 (racemic) [Compound 14, 3-acetamidino-DL-phenylalanine]",< 4.30,< 4.30,< 4.30
"CNC(N)=Nc1cccc(CC(N)C(=O)O)c1 (racemic) [Compound 16, 3-N-methylguanidino-DL-phenylalanine]",< 4.30,≥ 5.00,≥ 5.00
"CNC(=N)Nc1ccc(CC(N)C(=O)O)cc1 (racemic) [Compound 17, 4-N-methylguanidino-DL-phenylalanine]",< 4.30,≥ 4.30,≥ 4.30
"CC(=N)Nc1ccc(CC(N)C(=O)O)s1 (racemic) [Compound 18, 3-(5-(1-iminoethyl)amino)-2-thienyl)-DL-alanine]",≥ 5.00,≥ 4.30,≥ 4.30
"CC(=N)Nc1ccccc1CC(N)C(=O)O (racemic) [Compound 19, 2-((1-iminoethyl)amino)-DL-phenylalanine]",≥ 5.00,≥ 5.00,
"CNC(=N)NCc1ccc(CC(N)C(=O)O)s1 (racemic) [Compound 20, 3-(5-(N'-methylguanidino)methyl)-2-thienyl)-DL-alanine]",< 4.30,< 4.30,< 4.30
"N=C(NCc1ccc(CC(N)C(=O)O)s1)NC1CC1 (racemic) [Compound 21, 3-(5-(N'-cyclopropylguanidino)methyl)-2-thienyl)-DL-alanine]",< 4.30,< 4.30,< 4.30
"CSC(=N)NCc1ccc(CC(N)C(=O)O)s1 (racemic) [Compound 22, 3-(5-((S-methylisothioureido)methyl)-2-thienyl-DL-alanine]",< 4.30,< 4.30,< 4.30
"CCSC(=N)NCc1ccc(CC(N)C(=O)O)s1 (racemic) [Compound 23, 3-(5-((S-ethylisothioureido)methyl)-2-thienyl)-DL-alanine]",≥ 5.00,≥ 5.00,≥ 5.00
CSC(=N)NCc1ccc(C(N)C(=O)O)s1 (racemic) [Compound 24],< 4.30,< 4.30,< 4.30
CCSC(=N)NCc1ccc(C(N)C(=O)O)s1 (racemic) [Compound 25],≥ 5.00,≥ 4.30,≥ 5.00
"CSC(=N)Nc1cccc(CC(N)C(=O)O)c1 (racemic) [Compound 26, 3-(S-methylisothioureido)-DL-phenylalanine]",≥ 4.30,≥ 5.00,≥ 5.00
"CCSC(=N)Nc1cccc(CC(N)C(=O)O)c1 (racemic) [Compound 27, 3-(S-ethylisothioureido)-DL-phenylalanine]",≥ 5.00,≥ 5.00,≥ 6.00
